Among the data in patent publication US20250179059A1 (The Regents of the University of California, priority 2021, published 2025) are IC50 and GI50 values, retold here.

By IC50 is commonly meant the concentration that inhibits the measured activity by half. For orientation: GI50 means the concentration giving 50% growth inhibition. Lower therefore signals greater sensitivity of the cells.

Where two headings read alike, the source gives them in different places.

Assay [1] deals with T1, human BRD4 bromodomain II (Homo sapiens, UniProt O60885).
T1 construct: human BRD4 bromodomain II [based on Genbank NM_058243, residues 349-460]; host or cells: E. coli
Put plainly: Bromodomain binding assay (AlphaScreen), BRD4 BDII. In short, it runs like this: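 Tagged BRD4 BDI or BDII constructs, expressed in E. coli, competed against a K5/K8/K12/K16-acetylated biotin-H4 peptide. Proximity signal between bead pairs after room-temperature incubations gave concentration-response curves, from which IC50 was derived.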
On the technique in general: Bead proximity is the source of the signal in Alpha formats.

Assay [2] has as its system human SKM-1 acute myeloid leukemia cells. Put plainly: SKM-1 antiproliferation cell-based assay (ATPlite). Conditions: Homo sapiens. In short, it runs like this: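 Log-phase cells in RPMI 1640/15% FBS were seeded at 34722 cells/mL and exposed for 4 days to nine-concentration DMSO serial dilutions in triplicate. Viability was read as ATP luminescence (ATPlite 1step), and IC50 values came from variable-slope non-linear regression.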
In general terms: ATP-based viability assays read luminescence as a measure of living cells.

The mark [3] stands for this setting: AlphaScreen assay, Table C2, read-out: BRD4 BDII IC50.
The mark [4] stands for this setting: SKM-1, 96 h, SKM-1 antiproliferation assay, 4 days, Table C2.
Where [5] appears, read: BRD4 BDII AlphaScreen assay, read-out: BRD4 BD2 IC50.
[6] abbreviates: SKM-1, SKM-1 antiproliferation assay.

`Cn1ccn(-c2ccc(-c3cc(F)cc(-c4ccnc(N5CCN(CCCN)CC5)c4)c3O)cc2Cl)c1=O` [Example 620, 1-(3′-(2-(4-(3-aminopropyl)piperazin-1-yl)pyridin-4-yl)-3-chloro-5′-fluoro-2′-hydroxy-[1,1′-biphenyl]-4-yl)-3-methyl-1H-imidazol-2(3H)-one]: the IC50 in assay [1] (setting [3]) is 0.01 to 1 nM. In assay [2] (setting [4]), the GI50 was 30 to 300 nM.

As to `O=C1CCCN1c1ccc(-c2cccc(-c3cncc(N4CCNCC4)c3)c2O)cc1F` [Example 249, 1-(3-fluoro-2′-hydroxy-3′-(5-(piperazin-1-yl)pyridin-3-yl)-[1,1′-biphenyl]-4-yl)pyrrolidin-2-one], the IC50 in assay [1] (setting [3]) was 1 to 10 nM. The GI50 in assay [2] (setting [4]) was in the range of 30 to 300 nM.

Consider `C[C@@H]1CN(c2cc(-c3cc(F)cc(-c4ccc(-n5ccn(C)c5=O)c(Cl)c4)c3O)cc3cccnc23)CCN1` [Example 591, (R)-1-(3-chloro-5′-fluoro-2′-hydroxy-3′-(8-(3-methylpiperazin-1-yl)quinolin-6-yl)-[1,1′-biphenyl]-4-yl)-3-methyl-1H-imidazol-2(3H)-one], for which, in assay [1] (setting [3]), the IC50 was in the range of 0.01 to 1 nM. This compound had a GI50 in assay [2] (setting [4]) of 0.3 to 30 nM.

Regarding `O=C1N(c2ccc(-c3cccc(-c4ccnc(N5CCNCC5)c4)c3O)cc2Cl)CCC12CC2` [Example 341, 5-(3-chloro-2′-hydroxy-3′-(2-(piperazin-1-yl)pyridin-4-yl)-[1,1′-biphenyl]-4-yl)-5-azaspiro[2.4]heptan-4-one], the IC50 in assay [1] (setting [3]) was in the range of 10 to 100 nM. The GI50 in assay [2] (setting [4]) was 300 to 3000 nM.

For the compound `Cn1ccn(-c2ccc(-c3cc(F)cc(-c4cc(N5CCN6CCCC6C5)c5cn[nH]c5c4)c3O)cc2Cl)c1=O` (stereo not shown) [Example 606, 1-(3-chloro-5′-fluoro-3′-(4-(hexahydropyrrolo[1,2-a]pyrazin-2(1H)-yl)-1H-indazol-6-yl)-2′-hydroxy-[1,1′-biphenyl]-4-yl)-3-methyl-1H-imidazol-2(3H)-one], the IC50 in assay [1] (setting [3]) fell in the range of 0.01 to 1 nM. Also, in assay [2] (setting [4]), the GI50 was 0.3 to 30 nM.

Turning to `CN1CCN(c2ccc(-c3cccc(-c4cnnc(N5CCNCC5)c4)c3O)cc2Cl)C1=O` [Example 343, 1-(3-chloro-2′-hydroxy-3′-(6-(piperazin-1-yl)pyridazin-4-yl)-[1,1′-biphenyl]-4-yl)-3-methylimidazolidin-2-one], the 50% inhibitory concentration (IC50) in assay [1] (setting [3]) was in the range of 1 to 10 nM. This compound registered a GI50 in assay [2] (setting [4]) of 30 to 300 nM.

Consider `Cn1ccn(-c2ccc(-c3cc(=O)[nH]c(-c4cccc(N5CCN(C(C)(C)C)CC5)c4)c3O)cc2Cl)c1=O` [Example 1040, 6-(3-(4-(tert-Butyl)piperazin-1-yl)phenyl)-4-(3-chloro-4-(3-methyl-2-oxo-2,3-dihydro-1H-imidazol-1-yl)phenyl)-5-hydroxypyridin-2(1H)-one], for which the IC50 in assay [1] (setting [5]) was in the range of 10 to 100 nM. In assay [2] (setting [6]), the GI50 is 300 to 3000 nM.

With `Cn1ccn(-c2ccc(-c3cc(F)cc(-c4ccnc(N5CC6CC6(N)C5)c4)c3O)cc2Cl)c1=O` (stereo not shown) [Example 721, 1-(3′-(2-(1-amino-3-azabicyclo[3.1.0]hexan-3-yl)pyridin-4-yl)-3-chloro-5′-fluoro-2′-hydroxy-[1,1′-biphenyl]-4-yl)-3-methyl-1H-imidazol-2(3H)-one], in assay [1] (setting [3]), the IC50 was in the range of 0.01 to 1 nM. The compound further came in with a GI50 in assay [2] (setting [4]) of 30 to 300 nM.

For the compound `CN1CCN(c2ccc(-c3cccc(-c4cc(CN)cc(N5CCNCC5)c4)c3O)cc2Cl)C1=O` [Example 326, 1-(3″-(aminomethyl)-3-chloro-2′-hydroxy-5″-(piperazin-1-yl)-[1,1′:3′,1″-terphenyl]-4-yl)-3-methylimidazolidin-2-one], the IC50 in assay [1] (setting [3]) is 10 to 100 nM. Further, in assay [2] (setting [4]), the GI50 fell in the range of 300 to 3000 nM.

Regarding `Cc1ncc(-c2cc(F)cc(-c3ccc(-n4ccn(C)c4=O)c(Cl)c3)c2O)cc1N1CCC2(CCCN2C(C)C)C1` (stereo not shown) [Example 911, 1-(3-chloro-5′-fluoro-2′-hydroxy-3′-(5-(1-isopropyl-1,7-diazaspiro[4.4]nonan-7-yl)-6-methylpyridin-3-yl)-[1,1′-biphenyl]-4-yl)-3-methyl-1H-imidazol-2(3H)-one], the IC50 in assay [1] (setting [5]) was in the range of 0.01 to 1 nM. The compound also yielded a 50% growth inhibitory concentration (GI50) in assay [2] (setting [6]) of 0.3 to 30 nM.

Consider `CN1CCN(c2ccc(-c3cc(F)cc(-c4ccnc(N(C)CCN)c4)c3O)cc2Cl)C1=O` [Example 347, 1-(3′-(2-((2-aminoethyl)(methyl)amino)pyridin-4-yl)-3-chloro-5′-fluoro-2′-hydroxy-[1,1′-biphenyl]-4-yl)-3-methylimidazolidin-2-one], for which, in assay [1] (setting [3]), the IC50 lay within 10 to 100 nM. Further, the GI50 in assay [2] (setting [4]) lay within 300 to 3000 nM.

`Cn1ccn(-c2c(Cl)cc(-c3cc(F)cc(-c4cccc(N5CCN(C(C)(C)C)CC5)c4)c3O)cc2C2CC2)c1=O` [Example 933, 1-(3″-(4-(tert-butyl)piperazin-1-yl)-3-chloro-5-cyclopropyl-5′-fluoro-2′-hydroxy-[1,1′:3′,1″-terphenyl]-4-yl)-3-methyl-1H-imidazol-2(3H)-one]: the IC50 in assay [1] (setting [5]) was 10 to 100 nM. This compound also came in with a concentration for 50% growth inhibition (GI50) in assay [2] (setting [6]) of 30 to 300 nM.

For the compound `Cc1cc(-c2cc(F)cc(-c3cccc(N4CCN(C(C)(C)C)CC4)c3)c2O)ncc1-n1ccn(C)c1=O` [Example 940, 1-(6-(3′-(4-(tert-butyl)piperazin-1-yl)-5-fluoro-2-hydroxy-[1,1′-biphenyl]-3-yl)-4-methylpyridin-3-yl)-3-methyl-1H-imidazol-2(3H)-one], the IC50 in assay [1] (setting [5]) is over 100 nM. The GI50 in assay [2] (setting [6]) lay in the range of 300 to 3000 nM.

Take `COc1ncc(-c2cc(F)cc(-c3ccc(-n4ccn(C)c4=O)c(Cl)c3)c2O)cc1N1CC(C)(O)C2(CC2)C1` (stereo not shown) [Example 833, 1-(3-chloro-5′-fluoro-2′-hydroxy-3′-(5-(7-hydroxy-7-methyl-5-azaspiro[2.4]heptan-5-yl)-6-methoxypyridin-3-yl)-[1,1′-biphenyl]-4-yl)-3-methyl-1H-imidazol-2(3H)-one]: in assay [1] (setting [3]), the IC50 lay in the range of 1 to 10 nM. The GI50 in assay [2] (setting [4]) is 30 to 300 nM.

On to `CC(C)N1CCN(c2cc(-c3cc(F)cc(-c4ccc(-n5ccn(C)c5=O)c(Cl)c4)c3O)cc3[nH]ncc23)CC1` [Example 587, 1-(3-chloro-5′-fluoro-2′-hydroxy-3′-(4-(4-isopropylpiperazin-1-yl)-1H-indazol-6-yl)-[1,1′-biphenyl]-4-yl)-3-methyl-1H-imidazol-2(3H)-one], for which the IC50 in assay [1] (setting [3]) was in the range of 1 to 10 nM. Also, the GI50 in assay [2] (setting [4]) lay within 0.3 to 30 nM.

`CN1CCCN(c2ccc(-c3cccc(-c4ccnc(N5CCNCC5)c4)c3O)cc2F)C1=O` [Example 288, 1-(3-fluoro-2′-hydroxy-3′-(2-(piperazin-1-yl)pyridin-4-yl)-[1,1′-biphenyl]-4-yl)-3-methyltetrahydropyrimidin-2(1H)-one]: the IC50 in assay [1] (setting [3]) is over 100 nM. Also, the GI50 in assay [2] (setting [4]) is at least 3000 nM.

With `CN1CCC2(CC(=O)N(c3cc(-c4cc(F)cc(-c5ccc(-n6ccn(C)c6=O)c(Cl)c5)c4O)ccn3)C2)C1` (stereo not shown) [Example 712, 2-(4-(3′-chloro-5-fluoro-2-hydroxy-4′-(3-methyl-2-oxo-2,3-dihydro-1H-imidazol-1-yl)-[1,1′-biphenyl]-3-yl)pyridin-2-yl)-7-methyl-2,7-diazaspiro[4.4]nonan-3-one], the IC50 in assay [1] (setting [3]) is 0.01 to 1 nM. This compound also had a GI50 in assay [2] (setting [4]) of 30 to 300 nM.

As to `Cc1cc(-c2cc(C)nc(N3CC[C@H](N)C3)c2)c(O)c(-c2ccc(-n3ccn(C)c3=O)c(Cl)c2)c1` [Example 518, (S)-1-(3′-(2-(3-aminopyrrolidin-1-yl)-6-methylpyridin-4-yl)-3-chloro-2′-hydroxy-5′-methyl-[1,1′-biphenyl]-4-yl)-3-methyl-1H-imidazol-2(3H)-one], in assay [1] (setting [3]), the IC50 was in the range of 0.01 to 1 nM. This compound also returned a GI50 in assay [2] (setting [4]) of 0.3 to 30 nM.

In the case of `Cn1ccn(-c2ccc(-c3cc(F)cc(-c4cncc(N5CCC6(CCCN6)C5)c4)c3O)cc2Cl)c1=O` (stereo not shown) [Example 692, 1-(3′-(5-(1,7-diazaspiro[4.4]nonan-7-yl)pyridin-3-yl)-3-chloro-5′-fluoro-2′-hydroxy-[1,1′-biphenyl]-4-yl)-3-methyl-1H-imidazol-2(3H)-one], in assay [1] (setting [3]), the IC50 fell in the range of 0.01 to 1 nM. The compound also came in with a GI50 in assay [2] (setting [4]) of 0.3 to 30 nM.

For the compound `CN1CCN(c2ccc(-c3cc(F)cc(-c4cnc(OCCO)c(N5CCNCC5)c4)c3O)cc2Cl)C1=O` [Example 392, 1-(3-chloro-5′-fluoro-2′-hydroxy-3′-(6-(2-hydroxyethoxy)-5-(piperazin-1-yl)pyridin-3-yl)-[1,1′-biphenyl]-4-yl)-3-methylimidazolidin-2-one], in assay [1] (setting [3]), the IC50 was in the range of 1 to 10 nM. Besides, the GI50 in assay [2] (setting [4]) was in the range of 30 to 300 nM.

As for `Cn1ccn(-c2ccc(-c3cc(F)cc(-c4ccnc(N5CC[C@H](O)C5)c4)c3O)cc2Cl)c1=O` [Example 626, (S)-1-(3-chloro-5′-fluoro-2′-hydroxy-3′-(2-(3-hydroxypyrrolidin-1-yl)pyridin-4-yl)-[1,1′-biphenyl]-4-yl)-3-methyl-1H-imidazol-2(3H)-one], the IC50 in assay [1] (setting [3]) lay in the range of 0.01 to 1 nM. The same compound gave a 50% growth inhibitory concentration (GI50) in assay [2] (setting [4]) of 30 to 300 nM.

Take `Cn1ccn(-c2c(F)cc(-c3cc(F)cc(-c4ccnc(N5CCNCC5)c4)c3O)cc2Cl)c1=O` [Example 436, 1-(3-chloro-5,5′-difluoro-2′-hydroxy-3′-(2-(piperazin-1-yl)pyridin-4-yl)-[1,1′-biphenyl]-4-yl)-^3-methyl-1H-imidazol-2(3H)-one]: in assay [1] (setting [3]), the concentration for half-maximal inhibition (IC50) fell in the range of 1 to 10 nM. The compound also displayed a GI50 in assay [2] (setting [4]) of 30 to 300 nM.

Take `Cn1ccn(-c2ccc(-c3cc(F)cc(-c4cnc(C(F)(F)F)c(N5CCN(C(C)(C)C)CC5)c4)c3O)cc2Cl)c1=O` [Example 805, 1-(3′-(5-(4-(tert-butyl)piperazin-1-yl)-6-(trifluoromethyl)pyridin-3-yl)-3-chloro-5′-fluoro-2′-hydroxy-[1,1′-biphenyl]-4-yl)-3-methyl-1H-imidazol-2(3H)-one]: the IC50 in assay [1] (setting [3]) was in the range of 1 to 10 nM. In assay [2] (setting [4]), the GI50 fell in the range of 30 to 300 nM.
